These results are taken from patent US9139542B2, “Crystalline form of a substituted thiazolylacetic acid triethylamine salt” (THERAVANCE BIOPHARMA ANTIBIOTICS IP, LLC, priority 2013, dated 2015).

Molecules are shown by their SMILES.

Data set [1] is described as follows: Thermogravimetric analysis (TGA). The class given is physicochemical. The protocol: Thermogravimetric analysis (TGA) was performed using a TA Instruments Model Q-500 module equipped with high resolution capability. Data were collected and analyzed using TA Instruments Thermal Solutions software. A sample of crystalline (2Z)-2-(2-amino-5-chlorothiazol-4-yl)-2-(3-N-tert -butoxycarbonylaminopropoxyimino)acetic acid triethylamine salt (about 10 mg) was placed onto a platinum pan and scanned with a high resolution-heating rate from ambient temperature to 300° C. The balance and furnace chambers were purged with nitrogen flows during use.

Data set [2] can be described thus: Dynamic moisture sorption (DMS) assessment. It counts as physicochemical. The procedure: A dynamic moisture sorption (DMS) assessment (also known as a moisture sorption-desorption profile) was performed using a VTI atmospheric microbalance, SGA-100 system (VTI Corp., Hialeah, Fla. 33016). A sample of crystalline (2Z)-2-(2-amino-5-chlorothiazol-4-yl)-2-(3-N-tert-butoxycarbonylaminopropoxyimino)acetic acid triethylamine salt (about 10 mg) was used and the humidity was set at the ambient value at the start of the analysis. A typical DMS analysis consisted of three scans: ambient to 5% relative humidity (RH), 5% RH to 90% RH, 90% RH to 5% RH at a scan rate of 5% RH/step. The mass was measured every two minutes and the RH was changed to the next value (+/−5% RH) when the mass of the sample was stable to within 0.01% for 5 consecutive points.

For the compound `CC(C)(C)OC(=O)NCCCO/N=C(\C(=O)O)c1nc(N)sc1Cl.CCN(CC)CC` [crystalline form, (2Z)-2-(2-amino-5-chlorothiazol-4-yl)-2-(3-N-tert-butoxycarbonylaminopropoxyimino)acetic acid triethylamine salt], the “weight loss (TGA)” value in data set [1] (above 120° C., likely post-melting evaporation of triethylamine and decomposition) is “about 50%”; in data set [1] (temperature range of from 20° C. to 120° C.), “less than 0.25%”. The “hygroscopicity (reversible moisture sorption/desorption profile)” value in data set [2] (5% RH to 90% RH to 5% RH) is reported as “acceptable hygroscopicity”. For the same compound, the figures for the “weight gain (moisture sorption)” value in data set [2] (humidity range of 5% RH to 60% RH) and in data set [2] (humidity range of 60% RH to 90% RH) were “insignificant weight gain” and “about 5.56%”, respectively. Further, the “moisture loss on initial drying (DMS)” value in data set [2] (initial drying, ambient to 5% RH) amounted to 0.56 % by weight.
